Like-named read-outs stand apart in the source and are kept apart here.
What was measured:
[1] = system: BCR-ABL-expressing B-lineage acute lymphoblastic leukemia cells dependent on Bcl-2; assay: BH3 profiling, mitochondrial depolarization (JC-1) in permeabilized cells; assay type: cell-based; conditions: BH3 profiling fits Bcl-2, sigmoidal dose-response (variable slope); for Bottom (best-fit value): constrained (Bottom < 5 or 0 < Bottom < 5); for Top (best-fit value): constrained (Top > 78 or Top < 100); for LogEC50 (best-fit value): x = Log [Peptide] M, fits ambiguous or hit constraint
Description: We tested our designed peptides for Bfl-1 selective targeting by carrying out BH3 profiling of cells with known dependencies on anti-apoptotic proteins. In this assay, peptides are titrated into permeabilized cells, and mitochondrial depolarization is measured using the voltage-sensitive dye JC-1 (Figure 7A) ([Deng et al., 2007]). We tested the apoptotic sensitivity of BCR-ABL-expressing B-lineage acute lymphoblastic leukemia cell lines engineered to depend on Bcl-2, Bcl-xL, Mcl-1 or Bfl-1 overexpression for survival ([Koss et al., 2016]). […] EC50 values for inducing mitochondrial permeabilization in the engineered cell lines agreed well with trends in Bfl-1-binding affinities, as expected based on the mechanism of action (Figure 7C).
The creation and characterization of the BCR-ABL-expressing B-lineage acute lymphoblastic leukemia suspension cell lines with engineered dependencies on human versions of anti-apoptotic genes is detailed in [Koss et al. (2016)]). Cells were grown in RPMI (Life Technologies, Carlsbad, CA) with 10% fetal bovine serum, 2 mM L-glutamine, 10 mL/L 100x Pen/Strep (Life Technologies # 15140122), 25 mM HEPES and 10 mL/L 100x NEAA (Life Technologies, 11140050). The adherent cell lines PC-3 (RRID: CVCL_0035) and SF295 (RRID: CVCL_1690) are from the NCI60 panel ([Lorenzi et al., 2009]) and were grown in RPMI (Life Technologies) with 10% fetal bovine serum, 2 mM L-glutamine and 10 mL/L 100x Pen/Strep (Life Technologies # 15140122 ). Cell line identities were confirmed by STR profiling. The Lookout Mycoplasma PCR detection kit (Sigma) was used to detect mycoplasma infection. Mycoplasma was only detected in the PC-3 cell line, and internal controls were used to account for this phenotype.
Peptides were titrated by serial dilution in MEB buffer (150 mM Mannitol, 10 mM HEPES-KOH pH 7.5, 50 mM KCl, 0.02 mM EGTA, 0.02 mM EDTA, 0.1% BSA and 5 mM Succinate) containing 20 μg/mL oligomycin, 50 μg/mL digitonin, 2 μM JC-1 and 10 mM 2-mercaptoethanol in 384-well plates. Controls for no depolarization (1% DMSO) and complete depolarization with the mitochondrial oxidative phosphorylation uncoupler FCCP (20 μM) were included for data normalization. Cells were suspended at 1.67 × 10^6 cells/mL in MEB. 15 μL of cell suspension was added to each well containing 15 μL of treatment solution. Fluorescence emission was measured every 5 min for 3 hr at […] with 525 nm excitation on a Tecan Safire2. To produce percent depolarization, the area under the resultant curve was calculated and normalized to the assay controls. Peptide titration curves were fit to sigmoidal dose-response curves using Graphpad PRISM seven to obtain EC50 values.

Bcl-2 = target: T1, Bcl-2 (Homo sapiens, UniProt P10415); assay: Competition fluorescence polarization (anisotropy) with fluoresceinated BIM; assay type: binding
T1 construct: c-myc
T1 sequence (P10415 whole entry): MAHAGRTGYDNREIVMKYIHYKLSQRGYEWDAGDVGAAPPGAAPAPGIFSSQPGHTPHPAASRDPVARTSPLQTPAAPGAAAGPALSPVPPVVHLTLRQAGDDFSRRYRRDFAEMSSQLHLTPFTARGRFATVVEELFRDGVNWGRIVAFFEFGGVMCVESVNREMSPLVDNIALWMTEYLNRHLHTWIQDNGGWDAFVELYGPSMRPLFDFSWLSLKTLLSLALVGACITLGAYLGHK
Description: (§1) Plates were mixed at 23°C for 3 hr. Plates were read again at 24 to check equilibration. Experiments were done in at least triplicate.

Bcl-xL = target: T2, Bcl-xL (Homo sapiens, UniProt Q07817); assay: as above; assay type: binding
T2 construct: c-myc
T2 sequence (Q07817 whole entry): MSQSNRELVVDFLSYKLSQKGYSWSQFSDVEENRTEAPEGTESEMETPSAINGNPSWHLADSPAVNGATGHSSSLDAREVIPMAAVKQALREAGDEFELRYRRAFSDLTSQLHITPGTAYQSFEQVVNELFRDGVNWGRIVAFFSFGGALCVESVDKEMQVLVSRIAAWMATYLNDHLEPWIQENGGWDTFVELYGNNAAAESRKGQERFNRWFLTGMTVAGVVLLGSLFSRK
Description: as §1

Bcl-w = target: T3, Bcl-w (Homo sapiens, UniProt Q92843); assay: as above; assay type: binding
T3 construct: c-myc
T3 sequence (Q92843 1-193): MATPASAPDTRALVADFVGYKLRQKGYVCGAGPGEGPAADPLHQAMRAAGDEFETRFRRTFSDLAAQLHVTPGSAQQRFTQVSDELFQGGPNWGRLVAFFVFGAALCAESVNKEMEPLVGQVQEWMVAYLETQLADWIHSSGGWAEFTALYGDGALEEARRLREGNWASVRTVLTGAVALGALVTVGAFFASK
Description: as §1

Bfl-1 = target: T4, Bfl-1 (Homo sapiens, UniProt Q16548); assay: as above; assay type: binding; conditions: competition FP source data; for Ki: mean of three replicates
T4 construct: c-myc
T4 sequence (Q16548 1-175): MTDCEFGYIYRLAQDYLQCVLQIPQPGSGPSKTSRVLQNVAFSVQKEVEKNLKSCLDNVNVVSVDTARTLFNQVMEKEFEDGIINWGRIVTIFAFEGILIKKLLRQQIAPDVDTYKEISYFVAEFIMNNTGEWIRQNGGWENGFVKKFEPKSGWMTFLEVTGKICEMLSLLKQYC
Description: as §1

Mcl-1 = target: T5, Mcl-1 (Homo sapiens, UniProt Q07820); assay: as above; assay type: binding
T5 construct: c-myc
T5 sequence (Q07820 whole entry): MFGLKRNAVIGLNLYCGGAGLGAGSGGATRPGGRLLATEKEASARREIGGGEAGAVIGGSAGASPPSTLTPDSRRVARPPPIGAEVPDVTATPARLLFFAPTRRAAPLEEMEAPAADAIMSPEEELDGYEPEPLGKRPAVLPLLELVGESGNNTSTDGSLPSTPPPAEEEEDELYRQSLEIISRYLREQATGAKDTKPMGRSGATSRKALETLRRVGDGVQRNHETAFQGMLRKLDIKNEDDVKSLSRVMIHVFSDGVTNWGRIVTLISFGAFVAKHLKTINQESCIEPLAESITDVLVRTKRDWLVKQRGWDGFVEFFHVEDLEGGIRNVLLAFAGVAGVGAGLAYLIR
Description: C-myc-tagged receptors were used for all Bcl-2 homologs, as previously described ([DeBartolo et al., 2012]; [Dutta et al., 2010]). Plates were mixed at 23°C for 3 hr. Plates were read again at 24 to check equilibration. Experiments were done in at least triplicate. Data were fit, as described for competition fluorescence anisotropy experiments in [Foight et al. (2014]), to a complete competitive binding model (equation 17 in [Roehrl et al. [2004]]) using a Python script.

[2] = competition FP source data, mean of three replicates, values above 5 μM are reported as > 5 μM in the figures, read-out: mean Ki (M) Bcl-2
[3] = competition FP source data, replicate 1
[4] = competition FP source data, replicate 2
[5] = competition FP source data, replicate 3
[6] = competition FP source data, mean of three replicates, values above 5 μM are reported as > 5 μM in the figures, read-out: mean Ki (M) Bcl-xL
[7] = competition FP source data, mean of three replicates, values above 5 μM are reported as > 5 μM in the figures, read-out: mean Ki (M) Bcl-w
[8] = competition FP, 50 nM c-myc-tagged receptor + 25 nM fluoresceinated BIM, Tris pH 7.8, 23°C, 3 hr, mean ± SD of three replicates, read-out: Ki (nM) Bcl-w
[9] = competition FP source data, mean of three replicates, values above 5 μM are reported as > 5 μM in the figures, read-out: mean Ki (M) Mcl-1

| Substance | HillSlope (best-fit value) [1] | Bottom (best-fit value) [1] | Top (best-fit value) [1] | LogEC50 (best-fit value) [1] | Ki (Bcl-2; [2]) | Ki (M) Bcl-2 (Bcl-2; [3]) | Ki (M) Bcl-2 (Bcl-2; [4]) | Ki (M) Bcl-2 (Bcl-2; [5]) | Ki (Bcl-xL; [6]) | Ki (M) Bcl-xL (Bcl-xL; [3]) | Ki (M) Bcl-xL (Bcl-xL; [4]) | Ki (M) Bcl-xL (Bcl-xL; [5]) | Ki (Bcl-w; [7]) | Ki (M) Bcl-w (Bcl-w; [3]) | Ki (M) Bcl-w (Bcl-w; [4]) | Ki (M) Bcl-w (Bcl-w; [5]) | Ki (Bcl-w; [8]) | Ki (M) Mcl-1 (Mcl-1; [3]) | Ki (M) Mcl-1 (Mcl-1; [4]) | Ki (M) Mcl-1 (Mcl-1; [5]) | also measured |
| --- | --- | --- | --- | --- | --- | --- | --- | --- | --- | --- | --- | --- | --- | --- | --- | --- | --- | --- | --- | --- | --- |
| Ac-QWVREIAAGLRLAADNVNAQLER-NH2 [FS1] | 0.3224 | ~ 5 | ~ 78 | ~ -2.821 | 5.31e-06 M | 8.37e-06 M | 4.66e-06 M | 2.9e-06 M | 2.38e-06 M | 2.02e-06 M | 2.84e-06 M | 2.27e-06 M | 7.76e-06 M | 5.7e-06 M | 7.42e-06 M | 1.02e-05 M | > 5e-06 M | 2.37e-06 M | 8.12e-06 M | 1.24e-05 M | Ki (Bcl-2; competition FP, 50 nM c-myc-tagged receptor + 25 nM fluoresceinated BIM, Tris pH 7.8, 23°C, 3 hr, mean ± SD of three replicates, read-out: Ki (nM) Bcl-2): > 5e-06 M; Ki (Bfl-1): 14.9 nM; Ki (M) Bfl-1 (Bfl-1; replicate 1): 1.51e-08 M; Ki (M) Bfl-1 (Bfl-1; replicate 2): 1.72e-08 M; Ki (M) Bfl-1 (Bfl-1; replicate 3): 1.22e-08 M; Ki (Mcl-1; [9]): 7.64e-06 M; Ki (Mcl-1; competition FP, 50 nM c-myc-tagged receptor + 25 nM fluoresceinated BIM, Tris pH 7.8, 23°C, 3 hr, mean ± SD of three replicates, read-out: Ki (nM) Mcl-1): > 5e-06 M |
| Ac-QWIREIAAGLRRFADILNAQVER-NH2 [FS3] | 1.964 | ~ 5 | ~ 100 | -5.077 | 2.06e-06 M | 1.85e-06 M | 2.41e-06 M | 1.93e-06 M | 3.23e-07 M | 2.75e-07 M | 4.23e-07 M | 2.72e-07 M | 7.67e-07 M | 7.55e-07 M | 8.54e-07 M | 6.93e-07 M | – | 6.51e-07 M | 6.19e-07 M | 3.85e-07 M | Ki (Mcl-1; [9]): 5.52e-07 M |
| Ac-QWVREIAAGLRRAADDVNAQVER-NH2 [FS2] | 1.067 | ~ 5 | ~ 100 | -4.482 | 2.41e-06 M | 2.55e-06 M | 2.86e-06 M | 1.82e-06 M | 7.07e-06 M | 6.54e-06 M | 1e-05 M | 4.66e-06 M | 8.27e-06 M | 1.14e-05 M | 6.45e-06 M | 6.96e-06 M | > 5e-06 M | 2.88e-06 M | 3.39e-06 M | 3.32e-06 M | Ki (Bcl-xL; competition FP, 50 nM c-myc-tagged receptor + 25 nM fluoresceinated BIM, Tris pH 7.8, 23°C, 3 hr, mean ± SD of three replicates, read-out: Ki (nM) Bcl-xL): > 5e-06 M; Ki (Bfl-1): 21.4 nM; Ki (M) Bfl-1 (Bfl-1; replicate 1): 2.51e-08 M; Ki (M) Bfl-1 (Bfl-1; replicate 2): 2.52e-08 M; Ki (M) Bfl-1 (Bfl-1; replicate 3): 1.4e-08 M; fold weaker binding to Mcl-1 than to Bfl-1 (Mcl-1; ratio of Ki values from competition FP): > 100 fold |
